Experimental data as given in ChEMBL document CHEMBL1201862, “PubChem BioAssay data set” (2004).
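In this assay, cells in 96-well plates receive the compound at five concentrations for 48 hours. Endpoints are linearly interpolated between the surrounding concentrations. GI50: concentration for 50% inhibition of growth.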 Active and inactive are the calls of the source. No stated cut-off is given here; in the data, active = GI50 up to about 1.1 µM and inactive = higher.

Key:
Test in all cases: NCI anticancer screen, dose series, 48 h
[1] = system: EKVX
[2] = system: HT-29
[3] = system: SW-620
[4] = system: A549
[5] = system: UACC-62
[6] = system: K562
[7] = system: COLO 205
[8] = system: SK-MEL-5
[9] = system: HCT-15
[10] = system: KM12
[11] = system: U-251
[12] = system: Malme-3M
[13] = system: SF-295
[14] = system: DLD-1
[15] = system: HOP-62
[16] = system: NCI/ADR-RES
[17] = system: MDA-N
[18] = system: DU-145
[19] = system: HOP-92
[20] = system: PC-3

Q: `CSc1nc2nc(C(O)C(O)C(O)CO)cnc2c(=O)[nH]1` (stereo not given) was tested. Which GI50 [1] did it give?
A: The GI50 was > 100 µM (inactive).

Q: And the GI50 [2]?
A: The GI50 was > 100 µM (inactive).

Q: And the GI50 [3]?
A: The GI50 was > 100 µM (inactive).

Q: What about the GI50 [4] of the same compound?
A: Its GI50 is > 100 µM (inactive).

Q: And the GI50 [5]?
A: The GI50 was > 100 µM (inactive).

Q: What about the GI50 [6] of the same compound?
A: The GI50 was > 10 µM (inactive).

Q: And the GI50 [7]?
A: The GI50 was > 100 µM (inactive).

Q: And the GI50 [8]?
A: Its GI50 is > 100 µM (inactive).

Q: And the GI50 [9]?
A: The GI50 was > 100 µM.

Q: What about the GI50 [10] of the same compound?
A: Its GI50 is > 100 µM (inactive).

Q: And the GI50 [11]?
A: The GI50 was > 100 µM (inactive).

Q: What about the GI50 [12] of the same compound?
A: The GI50 was > 100 µM (inactive).

Q: What about the GI50 [13] of the same compound?
A: Its GI50 is > 100 µM (inactive).

Q: What about the GI50 [14] of the same compound?
A: The GI50 was > 100 µM (inactive).

Q: And the GI50 [15]?
A: Its GI50 is > 100 µM (inactive).

Q: Which GI50 [2] does the source give for `CC(Oc1ccc(OCC2CCCCC2)cc1)C(=O)NCCO` (stereo not given) here?
A: The GI50 was 99.3 µM (inactive).

Q: And the GI50 [4]?
A: The GI50 was > 100 µM (inactive).

Q: And the GI50 [5]?
A: The GI50 was > 100 µM (inactive).

Q: What about the GI50 [6] of the same compound?
A: The GI50 was > 100 µM (inactive).

Q: And the GI50 [8]?
A: Its GI50 is > 100 µM (inactive).

Q: And the GI50 [9]?
A: The GI50 was > 100 µM.

Q: What about the GI50 [10] of the same compound?
A: The GI50 was > 100 µM (inactive).

Q: What about the GI50 [11] of the same compound?
A: The GI50 was > 100 µM (inactive).

Q: What about the GI50 [12] of the same compound?
A: The GI50 was > 100 µM (inactive).

Q: And the GI50 [13]?
A: Its GI50 is 23.4 µM (inactive).

Q: What about the GI50 [14] of the same compound?
A: The GI50 was > 100 µM (inactive).

Q: Which results are given for `O=C1N/C(=N/N=C/c2cccs2)N/C1=C\c1ccco1`?
A: GI50 [16]: 66.4 µM (inactive); GI50 [1]: > 100 µM (inactive); GI50 [17]: 2.93 µM (inactive); GI50 [18]: > 100 µM (inactive); GI50 [19]: > 100 µM (inactive); GI50 [2]: 39.6 µM (inactive); GI50 [3]: 30.4 µM (inactive); GI50 [4]: 33.7 µM (inactive); GI50 [5]: 60.7 µM (inactive); GI50 [6]: 37.4 µM (inactive); GI50 [7]: 35.5 µM (inactive); GI50 [8]: 24.3 µM (inactive); GI50 [9]: > 100 µM; GI50 [20]: 18.9 µM (inactive); GI50 [10]: 34 µM (inactive); GI50 [11]: 23.5 µM (inactive); GI50 [12]: 38.6 µM (inactive); GI50 [13]: 94.2 µM (inactive); GI50 [15]: > 100 µM (inactive)

Q: Which GI50 [16] does the source give for `CCCCc1nc(C)oc1C(C)C` here?
A: The GI50 was > 100 µM (inactive).

Q: And the GI50 [1]?
A: Its GI50 is > 100 µM (inactive).

Q: And the GI50 [17]?
A: Its GI50 is > 100 µM (inactive).

Q: What about the GI50 [18] of the same compound?
A: Its GI50 is > 100 µM (inactive).

Q: And the GI50 [19]?
A: The GI50 was > 100 µM (inactive).

Q: And the GI50 [2]?
A: Its GI50 is > 100 µM (inactive).

Q: And the GI50 [3]?
A: The GI50 was > 100 µM (inactive).

Q: And the GI50 [4]?
A: The GI50 was > 100 µM (inactive).

Q: And the GI50 [5]?
A: Its GI50 is > 100 µM (inactive).

Q: And the GI50 [6]?
A: The GI50 was > 100 µM (inactive).

Q: And the GI50 [7]?
A: The GI50 was > 100 µM (inactive).

Q: What about the GI50 [8] of the same compound?
A: Its GI50 is > 100 µM (inactive).

Q: What about the GI50 [9] of the same compound?
A: Its GI50 is > 100 µM.

Q: And the GI50 [20]?
A: Its GI50 is > 100 µM (inactive).

Q: What about the GI50 [10] of the same compound?
A: The GI50 was > 100 µM (inactive).

Q: What about the GI50 [11] of the same compound?
A: The GI50 was > 100 µM (inactive).

Q: What about the GI50 [12] of the same compound?
A: The GI50 was > 100 µM (inactive).

Q: What about the GI50 [13] of the same compound?
A: Its GI50 is > 100 µM (inactive).

Q: And the GI50 [15]?
A: Its GI50 is > 100 µM (inactive).

Q: What does the source list for `CN1CCN(c2n[nH]c(=O)c3c2nnn3C2CCCCC2)CC1`?
A: GI50 [16]: > 100 µM (inactive); GI50 [1]: > 100 µM (inactive); GI50 [17]: > 100 µM (inactive); GI50 [18]: > 100 µM (inactive); GI50 [19]: > 100 µM (inactive); GI50 [2]: > 100 µM (inactive); GI50 [3]: > 100 µM (inactive); GI50 [4]: > 100 µM (inactive); GI50 [5]: > 100 µM (inactive); GI50 [6]: > 100 µM (inactive); GI50 [7]: > 100 µM (inactive); GI50 [8]: > 100 µM (inactive); GI50 [9]: > 100 µM; GI50 [20]: > 100 µM (inactive); GI50 [10]: > 100 µM (inactive); GI50 [11]: > 100 µM (inactive); GI50 [12]: > 100 µM (inactive); GI50 [13]: > 100 µM (inactive); GI50 [15]: > 100 µM (inactive)

Q: What does the source list for `Cc1ccc2cccc3c2c1CC1(C3=O)S(=O)(=O)OCCOS1(=O)=O`?
A: GI50 [16]: > 100 µM (inactive); GI50 [1]: > 100 µM (inactive); GI50 [17]: > 100 µM (inactive); GI50 [18]: > 100 µM (inactive); GI50 [19]: > 100 µM (inactive); GI50 [2]: > 100 µM (inactive); GI50 [3]: > 100 µM (inactive); GI50 [4]: > 100 µM (inactive); GI50 [5]: > 100 µM (inactive); GI50 [6]: > 100 µM (inactive); GI50 [7]: > 100 µM (inactive); GI50 [8]: > 100 µM (inactive); GI50 [9]: > 100 µM; GI50 [20]: > 100 µM (inactive); GI50 [10]: > 100 µM (inactive); GI50 [11]: > 100 µM (inactive); GI50 [12]: > 100 µM (inactive); GI50 [13]: > 100 µM (inactive); GI50 [15]: > 100 µM (inactive)

Q: With `O=C1C=CC(=O)c2c1ccc1c3ccccc3n(Cc3ccccc3)c21` as the compound, how does the GI50 [16] read?
A: The GI50 was 42.2 µM (inactive).

Q: What about the GI50 [1] of the same compound?
A: The GI50 was > 64.9 µM (inactive).

Q: And the GI50 [17]?
A: The GI50 was 23 µM (inactive).

Q: And the GI50 [18]?
A: Its GI50 is > 80.4 µM (inactive).

Q: And the GI50 [19]?
A: The GI50 was > 10 µM (inactive).

Q: What about the GI50 [2] of the same compound?
A: Its GI50 is 24.9 µM (inactive).

Q: What about the GI50 [3] of the same compound?
A: Its GI50 is 7.21 µM (inactive).

Q: What about the GI50 [4] of the same compound?
A: Its GI50 is > 100 µM (inactive).

Q: What about the GI50 [5] of the same compound?
A: The GI50 was 25.4 µM (inactive).

Q: What about the GI50 [6] of the same compound?
A: The GI50 was 2.84 µM (inactive).

Q: And the GI50 [7]?
A: Its GI50 is 18.9 µM (inactive).

Q: And the GI50 [8]?
A: Its GI50 is 32.3 µM (inactive).

Q: What about the GI50 [9] of the same compound?
A: The GI50 was 21.9 µM.

Q: And the GI50 [20]?
A: Its GI50 is 21.8 µM (inactive).

Q: And the GI50 [10]?
A: The GI50 was > 57.5 µM (inactive).

Q: What about the GI50 [11] of the same compound?
A: Its GI50 is 51.9 µM (inactive).

Q: And the GI50 [12]?
A: Its GI50 is 16.6 µM (inactive).

Q: What about the GI50 [13] of the same compound?
A: The GI50 was > 100 µM (inactive).

Q: What about the GI50 [15] of the same compound?
A: The GI50 was > 100 µM (inactive).

Q: For `CCN(CC)c1cc2c3c(c1)CCCN3CCC2`, which GI50 [16] is on record?
A: The GI50 was > 10 µM (inactive).

Q: What about the GI50 [1] of the same compound?
A: The GI50 was > 10 µM (inactive).

Q: And the GI50 [17]?
A: Its GI50 is > 10 µM (inactive).

Q: And the GI50 [18]?
A: Its GI50 is > 10 µM (inactive).

Q: What about the GI50 [19] of the same compound?
A: Its GI50 is > 10 µM (inactive).

Q: What about the GI50 [2] of the same compound?
A: The GI50 was > 10 µM (inactive).

Q: What about the GI50 [3] of the same compound?
A: The GI50 was > 10 µM (inactive).

Q: And the GI50 [4]?
A: Its GI50 is > 10 µM (inactive).

Q: And the GI50 [5]?
A: Its GI50 is > 10 µM (inactive).

Q: And the GI50 [6]?
A: Its GI50 is > 10 µM (inactive).

Q: And the GI50 [7]?
A: Its GI50 is > 10 µM (inactive).

Q: What about the GI50 [8] of the same compound?
A: Its GI50 is > 10 µM (inactive).

Q: What about the GI50 [9] of the same compound?
A: Its GI50 is > 10 µM.

Q: And the GI50 [20]?
A: The GI50 was > 10 µM (inactive).

Q: What about the GI50 [10] of the same compound?
A: The GI50 was > 10 µM (inactive).

Q: And the GI50 [11]?
A: Its GI50 is > 10 µM (inactive).

Q: What about the GI50 [12] of the same compound?
A: Its GI50 is > 10 µM (inactive).

Q: And the GI50 [13]?
A: The GI50 was > 10 µM (inactive).

Q: And the GI50 [15]?
A: Its GI50 is > 10 µM (inactive).
